Test results published in patent publication US20240082212A1, “USE OF MDMA FOR TREATMENT OF STRESS-RELATED DISORDERS” (priority 2022, published 2024).
“Also recorded” adds a separate entry of the source.

What was measured:
[1] = Rat brain monoamine and metabolite concentrations 1 week after cumulative SC dosing; settings: cumulative SC, 5 mg/kg/injection; 1 week after dosing; 5 mg/kg
[2] = Rat plasma pharmacokinetics after cumulative (QID) SC injections; settings: QID SC; for AUC(0-t) / half-life: CD (Sprague Dawley); for half-life: T1/2, male rat plasma
[3] = system: CD (Sprague Dawley) rats; experiment: Rat telemetry: heart rate, blood pressure, body temperature, activity after cumulative SC dosing; assay type: in vivo
From the text: Methods. A total of 42 adult male CD® (Sprague Dawley) rats (Charles River Laboratories) were surgically implanted with DSI radiotelemetry devices by personnel at Charles River Laboratories Raleigh, NC, per their test site SOPs. Telemetry devices supported continuous recording of temperature, activity, blood pressure and heart rate. Telemeterized rats were shipped to the Charles River Laboratories testing facility (Mattawan, MI) and acclimated to the environment for at least 1 week prior to experimentation. Animals were pair-housed in solid bottom cages with nonaromatic bedding. On the dosing day, animals were singly housed and then returned to the paired cohort following the dosing/telemetry recording phase. Diet (Lab Diet® Certified Rodent Diet #5CR4) and tap water via an automatic water system were available ad libitum, except during designated procedures. Temperature and humidity were maintained according to the Testing Facility SOP. Animals were randomized into treatment groups using a standard, by weight, measured value randomization procedure. Body weight was determined for each rat prior to dosing.
As illustrated in the Table, a total of 36 rats were included in the study. The vehicle and 2 test article doses were administered in a volume of 1 mL/kg to each of 3 groups of n=12 telemeterized rats via subcutaneous injection four times on a given day, followed by neurobehavioral evaluations. This series was repeated 3 times on study. Each group received all 3 dose levels of the applicable test or control article in ascending order with a 1-week washout between dose levels.
Mortality/cage side clinical observations were conducted for all study animals at least twice daily beginning upon receipt through termination, except on days of receipt and termination where frequency was at least once daily. Detailed clinical observations were conducted for all study animals prior to each of the four cumulative doses in a series. Individual body weights were conducted for all study animals at transfer, prior to randomization, on the day of dosing on each of the 3 cycles of dosing. The body weights recorded at transfer and prior to randomization are not reported but are maintained in the study file. Veterinary care was available throughout the course of the study, and animals were examined by the veterinary staff as needed based on clinical signs or other changes. All animals were provided with HydroGel the night prior to their respective dosing days to potentially mitigate any animal welfare issues related to fluid loss/dehydration.
Telemetry monitoring was conducted for all animals 2 hours prior to dosing and through to 7.5 hours following the last (4th) cumulative dose of each series, which included continuous data collection of body temperature, activity, heart rate, and blood pressure (systolic, diastolic, and mean arterial) using telemetry.
The total period of time over which the statistical analyses were conducted encompassed the entire dosing period for all animals (i.e., Dose 1 through 7.5 hour post-4th dose) in an effort to draw conclusions regarding the effects of the dosing procedure and cumulative changes by allowing comparisons between the cumulative dosing periods. The following statistical analyses were performed for each analysis segment.
All time-series data comparisons conducted via statistical analysis are relative to the control treatment and are based on the LSMean values. Additionally, the change values used for the statistical analysis were calculated using a baseline of the 2 hours of pre-dose data, prior to the first compound injection of the series. The raw change values were analyzed.

[4] = system: C57BL/6J mice; experiment: Head twitch response (HTR); assay type: in vivo, mouse; settings: 30 minutes after injection
Procedure, shortened: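 Male C57BL/6J mice with head-mounted magnets were given vehicle or test drug IP (0.1–10 mg/kg, salt-based dose, in saline; n=5-6/group). Head twitches were recorded by magnetometer coil for 30 minutes immediately after injection and classified by ResNet-50 features with SVM; treatments at least seven days apart.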

[5] = male rat plasma, parent analyte, total 5 mg/kg/day
[6] = male rat plasma, parent analyte, total 10 mg/kg/day
[7] = male rat plasma, parent analyte, total 20 mg/kg/day
[8] = racemic MDMA 20 mg/kg/day, S-MDMA 10 mg/kg/day, approximate
[9] = telemetry, cumulative SC dosing, dose groups stated in the value

In the case of `CNC(C)Cc1ccc2c(c1)OCO2` (single isomer, unassigned) [S-MDMA, S(+)-MDMA], the “frontal cortex 5-HT (serotonin) compared to vehicle” value [1] is reported as “significantly decreased frontal cortex 5-HT concentrations”, the “dose dependence of Cmax and AUC0-27 hr” value ([2]; from 5 to 10 mg/kg/day S-MDMA) is reported as “approximately dose proportional manner” and the “dose dependence of Cmax and AUC0-27 hr” value ([2]; from 5 to 20 mg/kg/day S-MDMA) is reported as “greater than dose proportional manner”. For the same compound, the Cmax ([2]; male rat plasma, parent analyte (total MDMA after Rac-MDMA), total 10 mg/kg/day of the test article) was 1220 ng/mL, the Cmax ([2]; male rat plasma, parent analyte (total MDMA after Rac-MDMA), total 20 mg/kg/day of the test article) was 2560 ng/mL and the “AUC0-27 hr/Dose” value [2, 5] was 302 *kg*ng/mL/mg. For the same compound, the Cmax/Dose [2, 5] was 89.3 kg·ng/mL/mg, the Tlast [2, 5] was 7 h and the AUC0-27 hr [2, 6] was 4130 ng·h/mL. The “AUC0-27 hr/Dose” value [2, 6] was 413 *kg*ng/mL/mg, the AUCTlast [2, 6] was 4030 ng·h/mL and the Cmax/Dose [2, 6] was 122 kg·ng/mL/mg. The T1/2 [2, 6] was 1.15 h, the Tlast [2, 6] was 11 h and the Tmax ([2]; male rat plasma, parent analyte, total 10 mg/kg/day, time after 1st injection) was 3.5 h. The AUC0-27 hr [2, 7] was 15000 ng·h/mL, the “AUC0-27 hr/Dose” value [2, 7] was 748 *kg*ng/mL/mg and the AUCTlast [2, 7] was 15000 ng·h/mL. The Cmax/Dose [2, 7] was 128 kg·ng/mL/mg, the Tlast [2, 7] was 27 h and the AUC(0-t) ([2]; male, rat, plasma, sc, 5 mg/kg/day, AUC0-27 hr, male rat plasma, parent analyte, total 5 mg/kg/day) was 1510 ng·h/mL. It also gave an AUC(0-t) ([2]; male, rat, plasma, sc, 5 mg/kg/day, AUCTlast, male rat plasma, parent analyte, total 5 mg/kg/day) of 1490 ng·h/mL, a half-life ([2]; male, rat, plasma, sc, 5 mg/kg/day, parent analyte, total 5 mg/kg/day) of 0.754 h and a half-life ([2]; male, rat, plasma, sc, 20 mg/kg/day, parent analyte, total 20 mg/kg/day) of 3.17 h. For the same compound, the Cmax ([2]; male, Sprague-Dawley (CD), rat, plasma, sc, 5 mg/kg/day, Cmax, male rat plasma, parent analyte, total 5 mg/kg/day of the test article) was 447 ng/mL, the “hemodynamic parameters (systolic/diastolic/mean arterial blood pressures and heart rate)” value ([3]; 4 hourly SC injections, cumulative doses 5, 10, or 20 mg/kg/day) was “dose-dependent blood pressure-increasing effects” and the “period of significantly decreased body temperature compared to R-MDMA (10 mg/kg/day)” value ([3]; S-MDMA 10 mg/kg/day, approximate) was 0.5-1 hours post initiation of dosing. For the same compound, the body temperature response ([3]; S-MDMA 5, 10 mg/kg/day, racemic-MDMA 10, 20 mg/kg/day, 4 hourly SC injections) was “hyperthermic response”, the “activity (implanted telemetry devices)” value ([3]; all cumulative doses (5, 10, or 20 mg/kg/day)) was “Activity-increasing effects” and the “blood pressure increase [mean arterial pressure]” value ([3]; maximum change, R-MDMA and racemic MDMA 10, 20 mg/kg/day, S-MDMA 5, 10 mg/kg/day, 4 hourly SC injections) was “up to +36%”. For the same compound, the peak body temperatures ([3]; overall mean magnitude of change, 4 hourly SC injections) was 39.5 °C, the “period of significantly increased body temperature compared to R-MDMA (10 mg/kg/day)” value [3, 8] was 3.5-4 hours post initiation of dosing and the “period of significantly increased heart rate compared to R-MDMA (10 mg/kg/day)” value [3, 8] was 5-10 hours post initiation of dosing. The “period of significantly increased mean arterial blood pressure compared to R-MDMA (10 mg/kg/day)” value [3, 8] was 1.5-3 hours post initiation of dosing, the “period of significantly increased systolic blood pressure compared to R-MDMA (10 mg/kg/day)” value [3, 8] was 1.5-3 hours post initiation of dosing and the “Rank Order Blood Pressures (Systolic, Diastolic, and Mean Arterial) Effects” value [3, 9] was “R-MDMA (10 mg/kg/day) < S-MDMA (5 mg/kg/day) < Rac.-MDMA (10 mg/kg/day); also recorded: R-MDMA (20 mg/kg/day) < S-MDMA (10 mg/kg/day) < Rac-MDMA (20 mg/kg/day); also recorded: S-MDMA (0 mg/kg/day) < S-MDMA (5 mg/kg/day) < S-MDMA (10 mg/kg/day); also recorded: R-MDMA (10 mg/kg/day) < S-MDMA (10 mg/kg/day) < Rac-MDMA (20 mg/kg/day)”. For the same compound, the “Rank Order Body Temperature Effects” value [3, 9] was “R-MDMA (10 mg/kg/day) < S-MDMA (5 mg/kg/day) < Rac.-MDMA (10 mg/kg/day); also recorded: R-MDMA (20 mg/kg/day) < S-MDMA (10 mg/kg/day) < Rac-MDMA (20 mg/kg/day); also recorded: S-MDMA (0 mg/kg/day) < S-MDMA (5 mg/kg/day) < S-MDMA (10 mg/kg/day); also recorded: R-MDMA (10 mg/kg/day) < S-MDMA (10 mg/kg/day) < Rac-MDMA (20 mg/kg/day)”, the “Rank Order General Activity Effects” value [3, 9] was “R-MDMA (10 mg/kg/day) < S-MDMA (5 mg/kg/day) < Rac.-MDMA (10 mg/kg/day); also recorded: R-MDMA (20 mg/kg/day) < S-MDMA (10 mg/kg/day) < Rac-MDMA (20 mg/kg/day); also recorded: S-MDMA (0 mg/kg/day) < S-MDMA (5 mg/kg/day) < S-MDMA (10 mg/kg/day); also recorded: R-MDMA (10 mg/kg/day) < S-MDMA (10 mg/kg/day) < Rac-MDMA (20 mg/kg/day)” and the “Rank Order Heart Rate Measurement Effects” value [3, 9] was “R-MDMA (10 mg/kg/day) < S-MDMA (5 mg/kg/day) < Rac.-MDMA (10 mg/kg/day); also recorded: R-MDMA (20 mg/kg/day) < S-MDMA (10 mg/kg/day) < Rac-MDMA (20 mg/kg/day); also recorded: S-MDMA (0 mg/kg/day) < S-MDMA (5 mg/kg/day) < S-MDMA (10 mg/kg/day); also recorded: R-MDMA (10 mg/kg/day) < S-MDMA (10 mg/kg/day) < Rac-MDMA (20 mg/kg/day)”. The “head twitch response (HTR) compared to control (vehicle)” value ([4]; 3 mg/kg IP) was “reduction of HTR” and the “head twitch response (HTR) compared to control (vehicle)” value ([4]; 10 mg/kg IP) was “reduction of HTR”.
